18 molecules from US20240043400A1, “Octahydroisoquinolinyl Derivatives” (UCB Biopharma SRL, priority 2020, published 2024) can be followed below.

In general, EC50 refers to the concentration that produces a half-maximal response.

Assay [1] deals with T1, human GABAA receptor α1β2 and γ2 subunits (Homo sapiens, UniProt P14867+P18507+P47870).
T1 construct: expressed in transfected cells
Description: Automated patch clamp studies on the GABAA receptor cells. The settings on record: 10 μM compound; 15 μM GABA; CHO-K1 cells; Table B. It is filed as cell-based. As to the method: CHO-K1 cells stably expressing human GABAA receptor α1β2 and γ2 subunits were used. The cells were harvested using trypsin and maintained in serum-free medium at room temperature. The cells were washed and re-suspended in extracellular solution before testing.
Experiments on human GABAA (α1β2γ2) channels were conducted using an automated patch clamp assay (lonFlux™ HT). The external solution for recording GABAA currents was composed of sodium chloride 137 mM, potassium chloride 4 mM, calcium chloride 1.8 mM, magnesium chloride 1 mM, HEPES 10 mM, and glucose 10 mM. Both external and internal solutions were titrated with NaOH or KOH to obtain a pH of 7.35 and 7.3, respectively. The internal pipette solution contained potassium fluoride 70 mM, potassium chloride 60 mM, sodium chloride 70 mM, HEPES 5 mM, EGTA 5 mM, and Magnesium ATP 4 mM. The final concentration of vehicle used to dilute compounds was 0.33% DMSO in each well. Bicuculline (0.032 to 100 μM) was used as positive control inhibitor. GABA (15 μM) was used as agonist. All recordings were obtained from a holding potential of −60 mV.
The compound addition sequence was the following: one addition of the EC80 concentration of GABA was added to establish baseline response. Each concentration of compound was applied for 30 seconds followed by the addition of 15 μM GABA in the presence of the compound for 2 seconds. The process was repeated with the next ascending concentration of compound. Peak inward currents in response to the GABA additions in the presence of a single concentration of compound were measured. All compound data have been normalized to the baseline peak current induced by addition of 15 μM GABA for 2 seconds.
On the technique in general: In patch-clamp work, channel activity is measured electrically.

Another assay addresses T2, dopamine D1 receptor (Homo sapiens, UniProt P21728).
T2 construct: host or cells: LMtk (Ltk-) mouse fibroblast cells, kept under Geneticin
Put plainly: cAMP HTRF potentiation assay (in the presence of dopamine). It is filed as cell-based. The settings on record: potentiation of cAMP with [EC20] of dopamine (1.1 nM); LMtk (Ltk−) mouse fibroblast cells expressing the dopamine D1 receptor. As for the experimental part: The potentiation assay measures the ability of compounds to increase the levels of cAMP produced by a low-threshold concentration of dopamine. The concentration of dopamine used ([EC20]) is designed to produce 20% stimulation compared to the maximal response (100%) seen with increasing the concentration of dopamine. To measure this potentiation we incubate increasing concentrations of the compound with the [EC20] of dopamine and measure the potentiation as increases in cAMP production. The pEC50 of a compound is the −log 10 of the concentration of the compound which produces 50% of the potentiation of the cAMP levels and the Erel is the relative efficacy, defined as the maximal % potentiation produced by the compound compared to the maximal response produced by increasing concentrations of dopamine (Erel of 1=dopamine maximum response).
Cells were cultured at 37° C. in a humidified atmosphere of 5% CO2. Cells were grown in DMEM-F12+GlutaMAX™-1 medium (GIBCO®, Invitrogen, Merelbeke, Belgium) containing 10% fetal bovine serum (BioWhittaker®, Lonza, Verviers, Belgium), 400 μg/mL Geneticin (GIBCO®), 100 IU/mL Penicillin and 100 IU/mL Streptomycin (Pen-Strep solution, BioWhittaker®).
The measurement of changes in intracellular cyclic adenosinemonophopshpate (cAMP) was determined using the HTRF cAMP dynamic assay kit from CisBio (Codolet, France). Using homogenous time-resolved fluoresence technology, the assay is based on competition between native cAMP produced by cells and cAMP labelled with the dye d2. The tracer binding is determined by an anti-cAMP antibody labeled with cryptate. The effects of the compound alone (agonism) was determined by performing the assay in the absence of dopamine, whilst the effect of the compound as a positive allosteric modulator (PAM) was determined in the presence of an EC20 concentration of dopamine. Cells (20,000 per well) are incubated in 384 plates for 1 h at rt in a final volume of 20 μLHBSS (Lonza, with calcium, magnesium and HEPES buffer 20 mM, pH 7.4) containing: isobutyl methylxanthine (Sigma, 0.1 mM final), varying concentrations of test compound (typically 10^−9.5 M to 10^−4.5 M) in the presence and absence of dopamine (1.1 nM final). The reaction is then terminated and the cells lysed by adding the d2 detection reagent in lysis buffer (10 μL) and the cryptate reagent in lysis buffer (10 μL) according to manufacturer's instructions. This is then incubated for a further 60 min at rt and changes in HTRF fluorescent emission ratio determined according to manufacturer's instructions using an Envision plate reader (Perkin Elmer, Zaventem, Belgium) with laser excitation. All incubations were performed in duplicate and results were compared to a concentration-effect curve to dopamine. (10^−11 M to 10^−6 M).
Data was analyzed using Excel and PRISM (GraphPad Software) to obtain pEC50 and Erel using the 4-parameter logistic equation (DeLean et al, 1978) where Erel is the fitted maximal response of the test compound minus basal expressed as a percentage relative to that obtained with dopamine which was defined as 100%.
Background: In TR-FRET formats the signal depends on donor and acceptor labels being close together.

T2 sequence (P21728 whole entry): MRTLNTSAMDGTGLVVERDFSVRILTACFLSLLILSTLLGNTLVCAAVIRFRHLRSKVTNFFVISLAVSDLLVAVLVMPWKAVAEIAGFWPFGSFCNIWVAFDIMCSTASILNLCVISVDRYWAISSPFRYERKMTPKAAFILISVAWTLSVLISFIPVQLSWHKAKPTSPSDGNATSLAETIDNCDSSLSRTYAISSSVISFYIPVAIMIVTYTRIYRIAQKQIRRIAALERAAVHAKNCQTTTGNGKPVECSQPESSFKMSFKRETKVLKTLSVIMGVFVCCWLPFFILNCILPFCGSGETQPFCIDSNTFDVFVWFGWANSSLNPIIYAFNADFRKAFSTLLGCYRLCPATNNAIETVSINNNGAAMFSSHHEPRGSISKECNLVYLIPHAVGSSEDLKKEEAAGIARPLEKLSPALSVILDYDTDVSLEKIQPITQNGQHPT
T1 sequence (P14867 28-456): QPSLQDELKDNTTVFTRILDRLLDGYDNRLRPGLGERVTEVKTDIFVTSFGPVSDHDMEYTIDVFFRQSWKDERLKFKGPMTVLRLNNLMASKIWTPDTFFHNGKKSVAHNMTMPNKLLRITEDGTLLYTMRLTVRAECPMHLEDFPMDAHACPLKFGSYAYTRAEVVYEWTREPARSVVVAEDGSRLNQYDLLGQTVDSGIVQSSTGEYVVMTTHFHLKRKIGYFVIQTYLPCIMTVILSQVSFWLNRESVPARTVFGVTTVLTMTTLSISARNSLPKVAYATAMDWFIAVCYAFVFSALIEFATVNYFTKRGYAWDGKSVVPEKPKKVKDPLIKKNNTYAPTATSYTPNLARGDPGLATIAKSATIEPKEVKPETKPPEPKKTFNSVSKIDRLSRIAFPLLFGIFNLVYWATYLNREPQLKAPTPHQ
T1 sequence (P47870 25-512 limits assumed): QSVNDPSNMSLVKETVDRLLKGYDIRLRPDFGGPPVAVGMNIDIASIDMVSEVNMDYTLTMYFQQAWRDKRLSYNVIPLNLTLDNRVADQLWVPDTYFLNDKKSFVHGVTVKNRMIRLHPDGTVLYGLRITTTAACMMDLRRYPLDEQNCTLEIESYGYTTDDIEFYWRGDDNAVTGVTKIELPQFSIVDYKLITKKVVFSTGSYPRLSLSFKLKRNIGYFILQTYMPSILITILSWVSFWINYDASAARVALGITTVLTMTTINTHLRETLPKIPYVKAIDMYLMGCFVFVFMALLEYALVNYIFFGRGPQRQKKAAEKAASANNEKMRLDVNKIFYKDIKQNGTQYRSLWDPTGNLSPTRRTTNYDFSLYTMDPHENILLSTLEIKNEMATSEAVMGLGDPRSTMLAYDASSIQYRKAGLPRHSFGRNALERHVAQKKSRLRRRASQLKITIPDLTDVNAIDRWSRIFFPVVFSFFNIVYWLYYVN
T1 sequence (P18507 40-475): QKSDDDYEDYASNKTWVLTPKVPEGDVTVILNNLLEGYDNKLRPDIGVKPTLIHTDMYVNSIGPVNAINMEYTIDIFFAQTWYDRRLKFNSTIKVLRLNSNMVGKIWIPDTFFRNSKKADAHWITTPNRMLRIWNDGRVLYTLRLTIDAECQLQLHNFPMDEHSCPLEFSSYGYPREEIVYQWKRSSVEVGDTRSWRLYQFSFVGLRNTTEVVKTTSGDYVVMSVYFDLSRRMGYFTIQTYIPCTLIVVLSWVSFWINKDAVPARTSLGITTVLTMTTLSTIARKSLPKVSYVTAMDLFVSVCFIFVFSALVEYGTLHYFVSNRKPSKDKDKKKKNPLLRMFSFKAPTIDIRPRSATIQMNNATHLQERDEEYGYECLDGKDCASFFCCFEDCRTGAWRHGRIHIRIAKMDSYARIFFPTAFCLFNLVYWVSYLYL

Turning to `COc1ccc(C#N)c(CC(=O)N2CC[C@@H]3[C@H](CCC[C@H]3C(C)(O)C(F)(F)F)[C@@H]2C)c1Cl` (single isomer, unassigned) [Example 7-B], the “% GABAA inhibition” value in assay [1] was 1.4%. Further, the EC50 on dopamine D1 receptor was 794 nM.
Regarding `C[C@H]1[C@H]2CCC[C@@H]([C@H](O)C(F)(F)F)[C@@H]2CCN1C(=O)Cc1c(Cl)cnc(C(O)C(F)F)c1Cl` (single isomer, unassigned) [Example 15-B], the EC50 at dopamine D1 receptor was 25.1 nM.
As to `C[C@H]1[C@H]2CCC[C@@H]([C@@H](O)C(F)(F)F)[C@@H]2CCN1C(=O)Cc1c(Cl)cnc(C(C)(O)C(F)F)c1Cl` (single isomer, unassigned) [Example 16-B], the EC50 on dopamine D1 receptor is 79.4 nM.
For `CC(O)c1ncc(Cl)c(CC(=O)N2CC[C@H]3[C@H]([C@H](O)C(F)F)CCC[C@@H]3[C@@H]2C)c1Cl` (single isomer, unassigned) [Example 17-A], the EC50 on dopamine D1 receptor was 158 nM.
Take `CC(O)c1ncc(Cl)c(CC(=O)N2CC[C@H]3[C@H]([C@H](O)C(F)F)CCC[C@@H]3[C@@H]2C)c1Cl` (single isomer, unassigned) [Example 17-B]: on dopamine D1 receptor, the 50% effective concentration (EC50) is 126 nM.
On to `CC(O)c1ncc(Cl)c(CC(=O)N2CC[C@@H]3[C@H](CCC[C@H]3[C@](C)(O)C(F)F)[C@@H]2C)c1Cl` (single isomer, unassigned) [Example 18-A], for which the EC50 at dopamine D1 receptor was 200 nM.
Same read-out and setting: the value for `CC(O)c1ncc(Cl)c(CC(=O)N2CC[C@@H]3[C@H](CCC[C@H]3[C@](C)(O)C(F)F)[C@@H]2C)c1Cl` (single isomer, unassigned) [Example 18-B] was 158 nM.
In the case of `CC(O)c1ncc(Cl)c(CC(=O)N2CC[C@H]3[C@H](CCC(C)(C)O)CCC[C@@H]3[C@@H]2C)c1Cl` (single isomer, unassigned) [Example 24-A], the EC50 on dopamine D1 receptor is 79.4 nM.
With `CC(O)c1ncc(Cl)c(CC(=O)N2CC[C@H]3[C@H](CCC(C)(C)O)CCC[C@@H]3[C@@H]2C)c1Cl` (single isomer, unassigned) [Example 24-B], at dopamine D1 receptor, the EC50 is 39.8 nM.
With `C[C@H]1[C@H]2CCC[C@@H]([C@H](O)C(F)(F)F)[C@@H]2CCN1C(=O)Cc1c(Cl)ccc(OC(F)F)c1Cl` [Example 19, 1-[(1 S,4aR,5R,8aS)-1-methyl-5-[(1 S)-2,2,2-trifluoro-1-hydroxy-ethyl]-3,4,4a,5,6,7,8,8a-octahydro-1H-isoquinolin-2-yl]-2-[2,6-dichloro-3-(difluoromethoxy)phenyl]ethanone], the EC50 on dopamine D1 receptor is 200 nM.
Still for that read-out and setting: in the case of `COc1ccc(C#N)c(CC(=O)N2CC[C@H]3C(C#CC(C)(C)O)CCC[C@@H]3[C@@H]2C)c1Cl` (stereo partly drawn) [Example 20, 2-[2-[(1S,4aS,8aS)-5-(3-hydroxy-3-methyl-but-1-ynyl)-1-methyl-3,4,4a,5,6,7,8,8a-octahydro-1H-isoquinolin-2-yl]-2-oxo-ethyl]-3-chloro-4-methoxy-benzonitrile] it was 158 nM.
Still for that read-out and setting: in the case of `COc1ccc(C#N)c(CC(=O)N2CC[C@H]3[C@H](CCC(C)(C)O)CCC[C@@H]3[C@@H]2C)c1Cl` [Example 21, 2-[2-[(1S,4aS,5S,8aS)-5-(3-hydroxy-3-methyl-butyl)-1-methyl-3,4,4a,5,6,7,8,8a-octahydro-1H-isoquinolin-2-yl]-2-oxo-ethyl]-3-chloro-4-methoxy-benzonitrile] it was 50.1 nM.
With `C[C@H]1[C@H]2CCC[C@@H](CCC(C)(C)O)[C@@H]2CCN1C(=O)Cc1c(Cl)ccc2c1c(Cl)nn2C` [Example 22, 1-[(1S,4aS,5S,8aS)-5-(3-hydroxy-3-methyl-butyl)-1-methyl-3,4,4a,5,6,7,8,8a-octahydro-1H-isoquinolin-2-yl]-2-(3,5-dichloro-1-methyl-indazol-4-yl)ethanone], on dopamine D1 receptor, the EC50 is 200 nM.
Still for that read-out and setting: the value for `C[C@H]1[C@H]2CCC[C@@H](CCC(C)(C)O)[C@@H]2CCN1C(=O)Cc1c(Cl)cnc(CO)c1Cl` [Example 23, 1-[(1S,4aS,5S,8aS)-5-(3-hydroxy-3-methyl-butyl)-1-methyl-3,4,4a,5,6,7,8,8a-octahydro-1H-isoquinolin-2-yl]-2-[3,5-dichloro-2-(hydroxymethyl)-4-pyridyl]ethanone] was 50.1 nM.
Take `COc1ccc(C#N)c(CC(=O)N2CC[C@@H]3[C@H](CCC[C@H]3c3cn[nH]n3)[C@@H]2C)c1Cl` [Example 25, 2-[2-[(1S,4aR,5R,8aS)-1-methyl-5-(2H-triazol-4-yl)-3,4,4a,5,6,7,8,8a-octahydro-1H-isoquinolin-2-yl]-2-oxoethyl]-3-chloro-4-methoxybenzonitrile]: the EC50 on dopamine D1 receptor was 631 nM.
Same read-out and setting: the value for `C[C@H]1[C@H]2CCC[C@@H]([C@H](O)C(F)(F)F)[C@@H]2C[C@H](CO)N1C(=O)Cc1c(Cl)ccc2c1c(Cl)nn2C` [Example 26-A, 1-[(1S,3R,4aR,5R,8aS)-3-(hydroxymethyl)-1-methyl-5-[(1S)-2,2,2-trifluoro-1-hydroxy-ethyl]-3,4,4a,5,6,7,8,8a-octahydro-1H-isoquinolin-2-yl]-2-(3,5-dichloro-1-methyl-indazol-4-yl)ethanone] was 3160 nM.
The same measure, in the same setting: in the case of `C[C@H]1[C@@H]2CCC[C@H]([C@H](O)C(F)(F)F)[C@H]2C[C@H](CO)N1C(=O)Cc1c(Cl)ccc2c1c(Cl)nn2C` [Example 26-B, 1-[(1S,3R,4aS,5S,8aR)-3-(hydroxymethyl)-1-methyl-5-[(1S)-2,2,2-trifluoro-1-hydroxy-ethyl]-3,4,4a,5,6,7,8,8a-octahydro-1H-isoquinolin-2-yl]-2-(3,5-dichloro-1-methyl-indazol-4-yl)ethanone] it was 50.1 nM; in that of `C[C@H]1[C@H]2CCC[C@@H]([C@H](O)C(F)(F)F)[C@@H]2CCN1C(=O)Cc1c(Cl)ccc2c1c(Cl)cn2C` [Example 27, 1-[(1 S,4aR,5R,8aS)-1-methyl-5-[(1 S)-2,2,2-trifluoro-1-hydroxy-ethyl]-3,4,4a,5,6,7,8,8a-octahydro-1H-isoquinolin-2-yl]-2-(3,5-dichloro-1-methyl-indol-4-yl)ethanone], 251 nM.
